Assay results: ChEMBL document CHEMBL1909046, “DrugMatrix in vitro pharmacology data”
pIC50, pKi: −log10 of the molar value.

Assays:
[1] = biological target: T1, Type-2 angiotensin II receptor (Homo sapiens, UniProt P50052); assay type: cell-based; conditions: cho-k1; further: in other assays of this panel Not Active means under 50% inhibition at 10 µM
T1 sequence (P50052 whole entry): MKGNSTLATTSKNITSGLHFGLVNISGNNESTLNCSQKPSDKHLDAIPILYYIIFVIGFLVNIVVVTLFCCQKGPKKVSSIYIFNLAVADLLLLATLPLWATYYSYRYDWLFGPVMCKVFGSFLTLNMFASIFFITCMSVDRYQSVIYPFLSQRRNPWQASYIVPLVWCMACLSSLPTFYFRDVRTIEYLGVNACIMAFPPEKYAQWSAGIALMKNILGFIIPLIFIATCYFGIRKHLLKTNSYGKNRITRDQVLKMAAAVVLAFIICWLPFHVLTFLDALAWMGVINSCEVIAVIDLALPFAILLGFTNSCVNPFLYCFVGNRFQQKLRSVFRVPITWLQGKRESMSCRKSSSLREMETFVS

[2] = biological target: T2, C-X-C chemokine receptor type 2 (Homo sapiens, UniProt P25025); assay type: cell membranes, Membrane; conditions: cho-k1; further: in other assays of this panel Not Active means under 50% inhibition at 10 µM
T2 sequence (P25025 whole entry): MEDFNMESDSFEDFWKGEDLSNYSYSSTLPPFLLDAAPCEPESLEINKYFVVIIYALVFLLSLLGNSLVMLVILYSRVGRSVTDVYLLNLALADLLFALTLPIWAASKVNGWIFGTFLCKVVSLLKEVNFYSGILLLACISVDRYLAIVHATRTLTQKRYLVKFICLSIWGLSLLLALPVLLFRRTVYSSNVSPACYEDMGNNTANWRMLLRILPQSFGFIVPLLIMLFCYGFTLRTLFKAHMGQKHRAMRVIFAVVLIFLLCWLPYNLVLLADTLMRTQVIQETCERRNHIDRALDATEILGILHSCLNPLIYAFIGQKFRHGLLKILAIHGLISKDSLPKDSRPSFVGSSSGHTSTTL

D(1A) dopamine receptor = D(1A) dopamine receptor (Homo sapiens, UniProt P21728); test: DRUGMATRIX: Dopamine D1 radioligand binding (ligand: [3H] SCH-23390); assay type: cell membranes, CHO, Membrane; conditions: Not Active = under 50% inhibition at 10 µM; for IC50: cho; for pIC50: read-out: IC50; for pKi: read-out: Ki
Chain of D(1A) dopamine receptor (P21728 whole entry): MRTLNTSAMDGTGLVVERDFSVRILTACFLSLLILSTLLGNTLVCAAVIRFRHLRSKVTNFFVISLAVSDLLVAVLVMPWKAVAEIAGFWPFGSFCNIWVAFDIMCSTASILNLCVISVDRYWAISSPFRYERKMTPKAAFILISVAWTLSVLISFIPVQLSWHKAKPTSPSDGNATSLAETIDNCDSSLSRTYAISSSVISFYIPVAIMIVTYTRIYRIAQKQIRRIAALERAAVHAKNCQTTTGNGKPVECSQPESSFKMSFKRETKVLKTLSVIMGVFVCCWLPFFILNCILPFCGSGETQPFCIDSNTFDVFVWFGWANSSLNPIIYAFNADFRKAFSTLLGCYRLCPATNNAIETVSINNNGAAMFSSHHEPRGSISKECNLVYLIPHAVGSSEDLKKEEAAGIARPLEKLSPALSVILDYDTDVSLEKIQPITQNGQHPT

Melanocortin receptor 4 = Melanocortin receptor 4 (Homo sapiens, UniProt P32245); assay type: cell membranes, HEK293, Membrane; conditions: hek293; further: in other assays of this panel Not Active means under 50% inhibition at 10 µM
Chain of Melanocortin receptor 4 (P32245 whole entry): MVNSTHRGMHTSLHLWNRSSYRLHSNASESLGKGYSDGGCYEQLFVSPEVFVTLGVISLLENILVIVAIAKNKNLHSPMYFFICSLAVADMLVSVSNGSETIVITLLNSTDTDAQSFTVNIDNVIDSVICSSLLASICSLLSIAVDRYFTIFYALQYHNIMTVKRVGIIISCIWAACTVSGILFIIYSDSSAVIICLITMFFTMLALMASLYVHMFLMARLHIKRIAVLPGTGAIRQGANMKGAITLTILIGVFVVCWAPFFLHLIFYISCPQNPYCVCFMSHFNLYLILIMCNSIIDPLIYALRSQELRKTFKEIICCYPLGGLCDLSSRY

[3] = biological target: Kappa-type opioid receptor (Homo sapiens, UniProt P41145); test: DRUGMATRIX: Opiate kappa (OP2, KOP) radioligand binding (ligand: [3H] Diprenorphine); assay type: cell membranes, HEK293, Membrane; conditions: hek293; Not Active = under 50% inhibition at 10 µM
Chain of Kappa-type opioid receptor (P41145 whole entry): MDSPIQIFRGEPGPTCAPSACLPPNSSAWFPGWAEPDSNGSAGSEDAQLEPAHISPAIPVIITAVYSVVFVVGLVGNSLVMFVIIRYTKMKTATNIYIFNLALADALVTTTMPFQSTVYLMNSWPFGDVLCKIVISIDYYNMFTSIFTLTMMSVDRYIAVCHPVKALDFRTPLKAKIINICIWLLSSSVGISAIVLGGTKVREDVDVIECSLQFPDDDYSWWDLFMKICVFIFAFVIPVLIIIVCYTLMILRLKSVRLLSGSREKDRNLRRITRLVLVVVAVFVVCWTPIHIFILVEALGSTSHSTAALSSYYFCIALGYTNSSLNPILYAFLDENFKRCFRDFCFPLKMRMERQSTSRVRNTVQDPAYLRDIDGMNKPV

[4] = biological target: T3, Angiotensin-converting enzyme (Oryctolagus cuniculus, UniProt P12822); assay type: tissue-based, Lung;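 further: enzymatic inhibition of angiotensin-converting enzyme measured with FAPGG as the substrate; in other assays of this panel Not Active means under 50% inhibition at 10 µM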
T3 sequence (P12822 whole entry): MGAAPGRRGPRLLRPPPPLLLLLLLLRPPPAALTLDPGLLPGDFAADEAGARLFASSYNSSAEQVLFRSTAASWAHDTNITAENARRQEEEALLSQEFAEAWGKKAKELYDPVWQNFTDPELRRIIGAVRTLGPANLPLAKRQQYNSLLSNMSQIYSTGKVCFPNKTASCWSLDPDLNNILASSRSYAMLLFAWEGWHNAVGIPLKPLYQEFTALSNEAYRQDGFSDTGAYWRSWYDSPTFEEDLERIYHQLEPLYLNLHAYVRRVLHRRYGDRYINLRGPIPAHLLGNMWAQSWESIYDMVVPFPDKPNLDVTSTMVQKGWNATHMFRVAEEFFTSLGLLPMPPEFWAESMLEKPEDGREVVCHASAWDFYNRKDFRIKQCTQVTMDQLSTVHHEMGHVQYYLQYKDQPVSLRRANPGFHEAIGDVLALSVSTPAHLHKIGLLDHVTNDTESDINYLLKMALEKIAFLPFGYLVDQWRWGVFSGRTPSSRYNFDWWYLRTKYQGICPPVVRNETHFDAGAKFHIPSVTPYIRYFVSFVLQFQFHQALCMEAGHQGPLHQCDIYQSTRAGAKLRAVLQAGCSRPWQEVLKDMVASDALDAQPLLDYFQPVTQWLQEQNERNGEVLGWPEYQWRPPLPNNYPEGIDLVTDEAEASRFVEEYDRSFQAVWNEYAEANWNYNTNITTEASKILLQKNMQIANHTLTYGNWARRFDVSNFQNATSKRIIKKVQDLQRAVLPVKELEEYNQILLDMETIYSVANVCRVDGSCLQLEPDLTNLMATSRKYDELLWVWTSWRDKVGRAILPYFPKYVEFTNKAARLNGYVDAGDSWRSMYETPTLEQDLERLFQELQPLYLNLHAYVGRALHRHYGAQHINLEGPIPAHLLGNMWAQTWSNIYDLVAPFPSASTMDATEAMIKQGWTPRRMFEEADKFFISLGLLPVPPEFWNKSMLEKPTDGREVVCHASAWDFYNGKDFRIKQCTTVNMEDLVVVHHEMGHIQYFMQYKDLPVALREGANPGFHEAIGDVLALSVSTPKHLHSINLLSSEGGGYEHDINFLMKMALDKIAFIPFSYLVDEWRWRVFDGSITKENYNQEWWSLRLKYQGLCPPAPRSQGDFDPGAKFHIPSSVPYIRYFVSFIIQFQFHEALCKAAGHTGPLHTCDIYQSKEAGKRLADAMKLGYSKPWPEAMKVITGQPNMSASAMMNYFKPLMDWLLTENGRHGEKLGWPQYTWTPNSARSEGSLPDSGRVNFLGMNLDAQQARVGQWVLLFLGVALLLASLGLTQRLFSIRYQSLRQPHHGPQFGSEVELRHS

[5] = biological target: Mitogen-activated protein kinase 14 (Homo sapiens, UniProt Q16539); design: species or system Escherichia coli
Chain of Mitogen-activated protein kinase 14 (Q16539 whole entry): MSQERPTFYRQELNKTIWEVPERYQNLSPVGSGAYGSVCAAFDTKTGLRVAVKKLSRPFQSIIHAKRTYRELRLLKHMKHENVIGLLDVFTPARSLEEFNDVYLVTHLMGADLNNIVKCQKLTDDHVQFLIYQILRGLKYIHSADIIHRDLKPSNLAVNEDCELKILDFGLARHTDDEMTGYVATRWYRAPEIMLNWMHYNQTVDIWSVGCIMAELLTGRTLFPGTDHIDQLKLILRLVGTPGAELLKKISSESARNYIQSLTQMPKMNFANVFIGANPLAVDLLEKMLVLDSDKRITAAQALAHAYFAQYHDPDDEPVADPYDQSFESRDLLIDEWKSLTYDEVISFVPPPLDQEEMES

Estrogen receptor = biological target: T4, Estrogen receptor (Homo sapiens, UniProt P03372); conditions: sf9; further: in other assays of this panel Not Active means under 50% inhibition at 10 µM
T4 sequence (P03372 whole entry): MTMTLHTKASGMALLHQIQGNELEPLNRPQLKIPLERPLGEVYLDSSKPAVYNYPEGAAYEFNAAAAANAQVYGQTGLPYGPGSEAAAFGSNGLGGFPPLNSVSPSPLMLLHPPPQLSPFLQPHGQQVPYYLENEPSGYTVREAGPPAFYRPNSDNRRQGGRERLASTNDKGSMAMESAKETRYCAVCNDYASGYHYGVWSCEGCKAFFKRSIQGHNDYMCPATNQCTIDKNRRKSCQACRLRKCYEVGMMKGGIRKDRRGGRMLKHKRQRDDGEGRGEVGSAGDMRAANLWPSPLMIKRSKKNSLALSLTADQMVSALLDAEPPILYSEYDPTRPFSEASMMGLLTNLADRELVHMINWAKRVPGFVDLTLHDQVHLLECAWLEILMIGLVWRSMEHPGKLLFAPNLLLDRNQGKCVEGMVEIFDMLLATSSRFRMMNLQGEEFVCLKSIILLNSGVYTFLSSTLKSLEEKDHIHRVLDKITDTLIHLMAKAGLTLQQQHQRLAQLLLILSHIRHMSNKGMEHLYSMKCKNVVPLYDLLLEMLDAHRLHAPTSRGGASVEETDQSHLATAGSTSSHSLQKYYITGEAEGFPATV

Row | SMILES | IC50 [1] | IC50 [2] | IC50 (D(1A) dopamine receptor) | IC50 (Melanocortin receptor 4) | IC50 [3] | IC50 [4] | IC50 [5] | IC50 (Estrogen receptor) | pIC50 (D(1A) dopamine receptor) | pKi (D(1A) dopamine receptor)
1 | CNCCCN1c2ccccc2CCc2ccccc21 [DESIPRAMINE] | Not Active | Not Active | Not Active | Not Active | Not Active | Not Active | Not Active | Not Active |  | 
2 | CC(C)[C@@]1(NC(=O)[C@@H]2C[C@@H]3c4cccc5[nH]cc(c45)C[C@H]3N(C)C2)O[C@@]2(O)[C@@H]3CCCN3C(=O)[C@H](Cc3ccccc3)N2C1=O.CS(=O)(=O)O [DIHYDROERGOCRISTINE MESYLATE] | Not Active | Not Active |  | Not Active | Not Active | Not Active | Not Active | Not Active | 5.93 | 6.23
3 | O=C(CCCN1CC=C(n2c(=O)[nH]c3ccccc32)CC1)c1ccc(F)cc1 [DROPERIDOL] | Not Active | Not Active |  | Not Active | Not Active | Not Active | Not Active | Not Active | 5.96 | 6.26
4 | CC(C)[C@H]1C(=O)N2CCC[C@H]2[C@]2(O)O[C@](NC(=O)[C@@H]3C=C4c5cccc6[nH]cc(c56)C[C@H]4N(C)C3)(C(C)C)C(=O)N12 [ERGOCORNINE] | Not Active | Not Active |  | Not Active | Not Active | Not Active | Not Active | Not Active | 6.53 | 6.83
5 | OC(Cn1cncn1)(Cn1cncn1)c1ccc(F)cc1F [FLUCONAZOLE] | Not Active | Not Active | Not Active | Not Active | Not Active | Not Active | Not Active | Not Active |  | 
6 | CC(C)C(=O)Nc1ccc([N+](=O)[O-])c(C(F)(F)F)c1 [FLUTAMIDE] | Not Active | Not Active | Not Active | Not Active | Not Active | Not Active | Not Active | Not Active |  | 
7 | N=C(N)NCCN1CCCCCCC1 [GUANETHIDINE] | Not Active | Not Active | Not Active | Not Active | Not Active | Not Active | Not Active | Not Active |  | 
8 | CC1(C)O[C@@H]2C[C@H]3[C@@H]4CCC5=CC(=O)CC[C@]5(C)[C@@]4(F)[C@@H](O)C[C@]3(C)[C@]2(C(=O)CCl)O1 [HALCINONIDE] | Not Active | Not Active | Not Active | Not Active | Not Active | Not Active | Not Active | Not Active |  | 
9 | CC1Cc2ccccc2N1NC(=O)c1ccc(Cl)c(S(N)(=O)=O)c1 (configuration not stated) [INDAPAMIDE] | Not Active | Not Active | Not Active | Not Active | Not Active | Not Active | Not Active | Not Active |  | 
10 | CCC(C)n1ncn(-c2ccc(N3CCN(c4ccc(OCC5COC(Cn6cncn6)(c6ccc(Cl)cc6Cl)O5)cc4)CC3)cc2)c1=O (configuration not stated) [ITRACONAZOLE] | Not Active | Not Active | Not Active | Not Active | Not Active | Not Active | Not Active | Not Active |  | 
11 | CCCCN1CCCC[C@H]1C(=O)Nc1c(C)cccc1C [LEVOBUPIVACAINE] | Not Active | Not Active | Not Active | Not Active | Not Active | Not Active | Not Active | Not Active |  | 
12 | Sc1ncnc2nc[nH]c12 [MERCAPTOPURINE ANHYDROUS] | Not Active | Not Active | Not Active | Not Active | Not Active | Not Active | Not Active | Not Active |  | 
13 | C[C@]12CCC(=O)C=C1CC[C@@H]1[C@@H]2CC[C@@]2(C)[C@H]1CC[C@]2(C)O [METHYLTESTOSTERONE] | Not Active | Not Active | Not Active | Not Active | Not Active | Not Active | Not Active | Not Active |  | 
14 | CCn1cc(C(=O)O)c(=O)c2cc(F)c(N3CCNCC3)cc21 [NORFLOXACIN] | Not Active | Not Active | Not Active | Not Active | Not Active | Not Active | Not Active | Not Active |  | 
15 | Nc1nc2c(ncn2CCC(CO)CO)c(=O)[nH]1 [PENCICLOVIR] | Not Active | Not Active | Not Active | Not Active | Not Active | Not Active | Not Active | Not Active |  | 
16 | C=C(C)C1(O)OC(=O)C=C1OC (configuration not stated) [PENICILLIC ACID] | Not Active | Not Active | Not Active | Not Active | Not Active | Not Active | Not Active | Not Active |  | 
17 | CC1(C)S[C@@H]2[C@H](NC(=O)Cc3ccccc3)C(=O)N2[C@H]1C(=O)O [PENICILLIN G] | Not Active | Not Active | Not Active | Not Active | Not Active | Not Active | Not Active | Not Active |  | 
18 | C1CCC(C(CC2CCCCN2)C2CCCCC2)CC1 (configuration not stated) [PERHEXILINE] | Not Active | Not Active | Not Active | Not Active | Not Active | Not Active | Not Active | Not Active |  | 
